The compounds below were run against T1, PDE-4A (Homo sapiens, UniProt P27815) (assay: PDE-4A inhibitory assay (SPA)).
T1 construct: PDE-4A catalytic domain comprising amino acids 342-704; made in house; host or cells: Escherichia coli
Type: biochemical
Description: Human recombinant PDE-4A catalytic domain comprising amino acids 342-704 was cloned into Escherichia coli and expressed, as described by W. Richter et al., Protein Expression and Purification (2000) 19: 375-383. The other posphodiesterases were either obtained from cell lines of human origin (TPH1 monocytes line for PDE-1, MCF7 for PDE-5) or expressed recombinantly in sf9 insect cells (for PDE-3A, PDE-3B, PDE-7A and PDE-4D) in accordance with an adapted method by Luckow, V. A. et al., in: Recombinant DNA Technology & Applications., (1991) eds. Prokop, Bajpai, R. K. & Ho, C. S., pp 97-152.
The phosphodiesterase activity was determined by the SPA assay as described by the manufacturer Amersham Biosciences and by Horton J. K and Baxendale P. M., Methods Mol. Biol. (1995) 41: 91-105.
The reaction mixtures contained 100 mM Tris-HCl (pH 7.5), 5 mM MgCl2, 3.8 mM 2-mercaptoethanol, and 1 μM cAMP or cGMP as a substrate, the inhibitors at different concentrations and also further components required for the detection of the individual isoenzymes (see below). The reaction was started by adding the enzyme. The operating volume is 100 μl in the wells of a white 96-Well microtiter plate. The test substances were produced as stock solutions in DMSO. The DMSO concentration in the reaction batch was 1% v/v. The PDE activity is not impaired with this DMSO concentration. Having started the reaction by the addition of enzyme, the samples were incubated at 22° C. for 20 min. The reaction was stopped by the addition of SPA bead suspension which contains the zinc sulfate concentration provided according to the manufacturer. Then, the beads are allowed to sediment for 30 min and the plates are analyzed on the luminescence microtiter plate reader Fluostar Optima (BMG Labtechologies).
[^3H]-cAMP was used as a substrate for determining the activity of PDE-2, -3, -4 and -7 and [^3H]-cGMP for determining the activity of PDE-5. The non-specific enzyme activities were determined in the presence of 100 μM rolipram (for PDE-4) and in the presence of 100 μM IBMX (for PDE-3 and -5) and subtracted from the test values. The incubation samples of the PDE-3 assay contain 10 μM rolipram to inhibit possible contaminations by PDE-4. The PDE-2 activity is tested using a SPA assay by Amersham Biosciences in the presence of the PDE-2 activator 5 μM cGMP. […] The selectivity as to PDEs 2, 3 and 5 has a factor of 100 to 10 000.

T1 sequence (P27815 342-704): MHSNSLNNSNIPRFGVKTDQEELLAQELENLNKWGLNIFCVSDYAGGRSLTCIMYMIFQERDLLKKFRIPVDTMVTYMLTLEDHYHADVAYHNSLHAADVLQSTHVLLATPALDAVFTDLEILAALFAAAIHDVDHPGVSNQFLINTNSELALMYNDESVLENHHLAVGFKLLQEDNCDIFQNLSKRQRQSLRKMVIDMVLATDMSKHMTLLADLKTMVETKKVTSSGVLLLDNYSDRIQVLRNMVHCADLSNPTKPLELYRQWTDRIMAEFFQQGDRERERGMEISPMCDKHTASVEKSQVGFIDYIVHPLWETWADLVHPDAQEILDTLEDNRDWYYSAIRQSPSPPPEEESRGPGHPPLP

Q: `CCOc1nc(N2CCNCC2)nc2c1sc1nc(-c3cccc4ccccc34)nc(C)c12` [4-Ethoxy-9-methyl-7-(1-naphthyl)-2-piperazin-1-yl-thieno[2,3-d:4,5-d′]dipyrimidine] was tested. Which IC50 did it give?
A: 2 to 50 nM

Q: `CCOc1ccc(-c2cc(CC)c3c(n2)sc2c(N4CCNCC4)nc(OCC)nc23)cc1` [2-Ethoxy-7-(4-ethoxy-phenyl)-9-ethyl-4-(piperazin-1-yl)-pyrido[3′,2′:4,5]thieno[3,2-d]pyrimidine] was tested. Which IC50 did it give?
A: < 2 nM

Q: For `CCOc1nc(N2CCNCC2)nc2c1sc1nc(-c3cc(OC)c(OC)c(OC)c3)cc(C(F)(F)F)c12` [4-Ethoxy-2-piperazin-1-yl-9-trifluoromethyl-7-(3,4,5-trimethoxy-phenyl)-pyrido[3′,2′:4,5]thieno[3,2-d]pyrimidine], which IC50 is on record?
A: 2 to 50 nM

Q: With `CCOc1nc(N2CCNCC2)nc2c1sc1nc(-c3ccc(-n4cccn4)cc3)cc(CC)c12` [4-Ethoxy-7-(4-(1H-pyrazol-1-yl)-phenyl)-9-ethyl-2-piperazin-1-yl-pyrido[3′,2′:4,5]thieno[3,2-d]pyrimidine] as the compound, how does the IC50 read?
A: < 2 nM

Q: `CCOc1nc(N2CCNCC2)nc2c1sc1nc(-c3ccc(-c4ccc(OC)c(OC)c4)cc3)nc(C)c12` [7-(3′,4′-Dimethoxybiphen-4-yl)-4-ethoxy-9-methyl-2-piperazin-1-yl-thieno[2,3-d:4,5-d′]dipyrimidine] was tested. Which IC50 did it give?
A: < 2 nM

Q: `CCOc1nc(N2CCNCC2)nc2c1sc1nc(N3CCOCC3)cc(C)c12` [4-Ethoxy-9-methyl-7-morpholino-2-(piperazin-1-yl)-pyrido[3′,2′:4,5]thieno[3,2-d]pyrimidine] was tested. Which IC50 did it give?
A: 2 to 50 nM

Q: Which IC50 does the source give for `CCOc1nc(N2CCNCC2)c2sc3nc(C(C)C)cc(C(C)C)c3c2n1` [2-Ethoxy-7,9-di-iso-propyl-4-(piperazin-1-yl)-pyrido[3′,2′:4,5]thieno[3,2-d]pyrimidine] here?
A: 2 to 50 nM

Q: For `CCOC(=O)c1ccc(-c2ccc(-c3nc(C)c4c(n3)sc3c(OCC)nc(N5CCNCC5)nc34)cc2)cc1` [4-(4-Ethoxy-9-methyl-2-piperazin-1-yl-thieno[2,3-d:4,5-d′]dipyrimidin-7-yl)-biphenyl-4′-carboxylic acid ethyl ester], which IC50 is on record?
A: 2 to 50 nM

Q: `CCOc1nc(N2CCNCC2)nc2c1sc1nc(-c3ccc(-c4ccc(N)cc4)cc3)nc(C)c12` [7-(4′-Aminobiphen-4-yl)-4-ethoxy-9-methyl-2-piperazin-1-yl-thieno[2,3-d:4,5-d′]dipyrimidine] was tested. Which IC50 did it give?
A: < 2 nM

Q: For `CCOc1nc(N2CCNCC2)nc2c1sc1nc(-c3ccc(OC)cc3)c(Cc3ccc([N+](=O)[O-])cc3)c(C)c12` [4-Ethoxy-7-(4-methoxy-phenyl)-9-methyl-8-(4-nitro-benzyl)-2-(piperazin-1-yl)-pyrido[3′,2′:4,5]thieno[3,2-d]pyrimidine], which IC50 is on record?
A: 2 to 50 nM

Q: Which IC50 does the source give for `CCOc1nc(N2CCNCC2)nc2c1sc1nc(-c3ccc4c(c3)OCO4)cc(C(F)(F)F)c12` [4-Ethoxy-7-(3,4-methylenedioxyphenyl)-2-piperazin-1-yl-9-trifluoromethyl-pyrido[3′,2′:4,5]thieno-[3,2-d]pyrimidine] here?
A: < 2 nM

Q: `CCOc1nc(N2CCNCC2)nc2c1sc1nc(N3CCOCC3)c3c(c12)CCCCC3` [9-Ethoxy-6-morpholino-11-(piperazin-1-yl)-2,3,4,5-tetrahydro-1H-cyclohepta[4′,5′]pyrido[3′,2′:4,5]thieno[3,2-d]pyrimidine] was tested. Which IC50 did it give?
A: 2 to 50 nM

Q: Which IC50 does the source give for `CCOc1nc(N2CCNCC2)nc2c1sc1nc(C)cc(-c3ccccc3)c12` [4-Ethoxy-7-methyl-9-phenyl-2-(piperazin-1-yl)-pyrido[3′,2′:4,5]thieno[3,2-d]pyrimidine] here?
A: 2 to 50 nM

Q: How did the IC50 turn out when `CCOc1nc(N2CCNCC2)nc2c1sc1nc3c(c(C(F)(F)F)c12)CCc1cc(OC)ccc1-3` [5,6-Dihydro-11-ethoxy-3′-methoxy-9-piperazin-1-yl-7-trifluoromethyl-benzo[h]pyrimido[4′,5′:4,5]thieno[2,3-b]quinoline] was run?
A: < 2 nM

Q: For `CCOc1nc(N2CCNCC2)nc2c1sc1nc(N3CCN(c4ncccn4)CC3)cc(CC)c12` [4-Ethoxy-9-ethyl-7-(4-(pyrimidyl-2-yl)piperazin-1-yl)-2-piperazin-1-yl-pyrido[3′,2′:4,5]thieno[3,2-d]pyrimidine], which IC50 is on record?
A: < 2 nM

Q: `CCOc1nc(N2CCNCC2)nc2c1sc1nc(-c3ccc(Br)cc3)nc(C)c12` [7-(4-Bromo-phenyl)-4-ethoxy-9-methyl-2-piperazin-1-yl-thieno[2,3-d:4,5-d′]dipyrimidine] was tested. Which IC50 did it give?
A: 2 to 50 nM

Q: Which IC50 does the source give for `CCOc1nc(N2CCNCC2)nc2c1sc1nc(-c3ccc(SC)cc3)cc(C(F)(F)F)c12` [4-Ethoxy-7-(4-methylthiophenyl)-2-(piperazin-1-yl)-9-trifluoromethyl-pyrido[3′,2′:4,5]thieno[3,2-d]pyrimidine] here?
A: < 2 nM

Q: `CCOc1nc(N2CCNCC2)nc2c1sc1nc(-c3ccccc3)nc(C)c12` [4-Ethoxy-9-methyl-7-phenyl-2-piperazin-1-yl-thieno[2,3-d:4,5-d′]dipyrimidine] was tested. Which IC50 did it give?
A: 2 to 50 nM

Q: Which IC50 does the source give for `Cc1cc(-c2ccccc2)nc2sc3c(N4CCNCC4)nc(OCC(F)F)nc3c12` [2-(2,2-Difluoro-ethoxy)-9-methyl-7-phenyl-4-(piperazin-1-yl)-pyrido[3′,2′:4,5]thieno[3,2-d]pyrimidine] here?
A: 2 to 50 nM

Q: With `CCOc1nc(N2CCNCC2)nc2c1sc1nc(N3CCOCC3)c3c(c12)CCN(C)C3` [8-Ethoxy-3-methyl-5-morpholino-10-piperazin-1-yl-pyrimido[4′,5′:4,5]thieno[2,7]-1,2,3,4-tetrahydro-naphthyridine] as the compound, how does the IC50 read?
A: 2 to 50 nM

Q: With `CCOc1nc(N2CCNCC2)nc2c1sc1nc(-c3ccc(C(F)(F)F)cc3)cc(C)c12` [4-Ethoxy-7-(4-trifluoro-methyl-phenyl)-9-methyl-2-(piperazin-1-yl)-pyrido[3′,2′:4,5]thieno[3,2-d]pyrimidine] as the compound, how does the IC50 read?
A: 2 to 50 nM

Q: `CCOc1nc(N2CCNCC2)nc2c1sc1nc(-c3ccc(Oc4ccc(OC)cc4)cc3)cc(CC)c12` [4-Ethoxy-9-ethyl-7-[4-(4-methoxyphenoxy)phenyl]-2-(piperazin-1-yl)-pyrido[3′,2′:4,5]thieno[3,2-d]pyrimidine] was tested. Which IC50 did it give?
A: < 2 nM

Q: How did the IC50 turn out when `CCOc1nc(N2CCNCC2)nc2c1sc1nc(-c3ccc(Br)cc3)cc(CC)c12` [7-(4-Bromo-phenyl)-4-ethoxy-9-ethyl-2-(piperazin-1-yl)-pyrido[3′,2′:4,5]thieno[3,2-d]pyrimidine] was run?
A: < 2 nM

Q: How did the IC50 turn out when `CCOc1nc(N2CCNCC2)c2sc3nc(C)cc(-c4ccccc4)c3c2n1` [2-Ethoxy-7-methyl-9-phenyl-4-(piperazin-1-yl)-pyrido[3′,2′:4,5]thieno[3,2-d]pyrimidine] was run?
A: 2 to 50 nM

Q: `CCOc1nc(N2CCNCC2)c2sc3nc(-c4ccccc4)c4c(c3c2n1)CCCC4` [10-Ethoxy-5-phenyl-8-piperazin-1-yl-pyrimido[4′,5′:4,5]thieno[2,3-c]-1,2,3,4-tetrahydro-isoquinoline] was tested. Which IC50 did it give?
A: 2 to 50 nM

Q: With `CCOc1nc(N2CCNCC2)nc2c1sc1nc(-c3ccc(I)cc3)cc(CC)c12` [4-Ethoxy-9-ethyl-7-(4-iodo-phenyl)-2-(piperazin-1-yl)-pyrido[3′,2′:4,5]thieno[3,2-d]pyrimidine] as the compound, how does the IC50 read?
A: < 2 nM

Q: With `CCOc1nc(N2CCNCC2)nc2c1sc1nc(-c3ccc(C)cc3)cc(C(F)(F)F)c12` [4-Ethoxy-7-(4-methyl-phenyl)-2-(piperazin-1-yl)-9-trifluoromethyl-pyrido[3′,2′:4,5]thieno[3,2-d]pyrimidine] as the compound, how does the IC50 read?
A: < 2 nM

Q: For `CCOc1nc(N2CCNCC2)nc2c1sc1nc(Cc3ccccc3)nc(C)c12` [7-Benzyl-4-ethoxy-9-methyl-2-piperazin-1-yl-thieno[2,3-d:4,5-d′]dipyrimidine], which IC50 is on record?
A: 2 to 50 nM

Q: For `CCOc1nc(N2CCNCC2)nc2c1sc1nc(-c3ccc(N4CCCCC4)cc3)cc(C(F)(F)F)c12` [4-Ethoxy-2-(piperazin-1-yl)-7-(4-(piperidin-1-yl)phenyl)-9-trifluoromethyl-pyrido[3′,2′:4,5]thieno[3,2-d]pyrimidine], which IC50 is on record?
A: < 2 nM

Q: With `CCOc1nc(N2CCNCC2)nc2c1sc1nc(-c3ccc(OCc4ccc([N+](=O)[O-])cc4)cc3)cc(C(F)(F)F)c12` [4-Ethoxy-7-[4-(4-nitrobenzyloxy)-phenyl]-2-piperazin-1-yl-9-trifluoromethyl-pyrido[3′,2′:4,5]thieno[3,2-d]pyrimidine] as the compound, how does the IC50 read?
A: 2 to 50 nM

Q: For `CCOc1nc(N2CCNCC2)nc2c1sc1nc(-c3ccc(F)cc3)cc(C(F)(F)F)c12` [4-Ethoxy-7-(4-fluoro-phenyl)-2-piperazin-1-yl-9-trifluoromethyl-pyrido[3′,2′:4,5]thieno[3,2-d]pyrimidine], which IC50 is on record?
A: 2 to 50 nM

Q: Which IC50 does the source give for `CCOc1nc(N2CCNCC2)nc2c1sc1nc(-c3ccc(Cl)cc3)cc(C(F)F)c12` [9-Difluoromethyl-7-(4-chloro-phenyl)-4-ethoxy-2-piperazin-1-yl-pyrido[3′,2′:4,5]thieno[3,2-d]pyrimidine] here?
A: 2 to 50 nM

Reference: patent US8058285B2, “Substituted pyrido [3′, 2′: 4, 5] thieno [3, 2-D] pyrimidines and pyrido [3′, 2′: 4, 5] furo [3, 2-D] pyrimidines used as inhibitors of the PDE-4 and/or the release of TNF-ALPHA” (The Medicines Company (Leipzig) GmbH, priority 2004, dated 2011)
